Values joined by “and” are separate entries in the source; they are usually repeats but may differ in a detail not shown here. Equal values may be shown once.

The assay deals with Aurora kinase B (Homo sapiens, UniProt Q96GD4). Briefly: Isothermal Titration Calorimetry (ITC). The settings on record: pH 8; 25 °C. On the procedure: Calorimetric titrations were performed in a Microcal iTC 200 microcalorimeter. Freshly purified 5 µM protein (Aurora A/B kinases) was titrated against 100 µM ligand (felodipine/ PTK66) in each case at 25 °C. Proteins and the ligandswere diluted in the final dialysate (20 mM Tris-HCl, pH 8.0, 0.2 mM EDTA and 100 mM KCl) against which the proteins were extensively dialysed to avoid any artefact due to the minor differences in buffer composition. DMSO content was kept exactly same in the cell (not exceeding 0.2% v/v) and syringe to rule out any interference due to DMSO content mismatch. All samples were thoroughly degassed prior to titration and were prepared with the same batch of dialysate to avoid any artefacts from the minor differences in buffer composition. Dilutions of 100 µM felodipine/PTK66 in dialysate containing equal percentage of DMSOserved as controls. The stirring speed was 300 rpm.
Sequence of Aurora kinase B (Q96GD4 whole entry): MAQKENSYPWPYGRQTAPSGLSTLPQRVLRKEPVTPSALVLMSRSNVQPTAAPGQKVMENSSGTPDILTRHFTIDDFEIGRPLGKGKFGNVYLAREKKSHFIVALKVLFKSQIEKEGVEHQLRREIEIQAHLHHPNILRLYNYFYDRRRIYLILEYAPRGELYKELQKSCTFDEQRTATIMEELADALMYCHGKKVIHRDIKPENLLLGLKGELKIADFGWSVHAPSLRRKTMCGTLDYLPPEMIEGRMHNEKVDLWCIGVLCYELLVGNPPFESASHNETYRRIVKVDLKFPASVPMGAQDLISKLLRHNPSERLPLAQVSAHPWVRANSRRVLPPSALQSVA

`CCOC(=O)C1=C(C)NC(C)=C(C(=O)OC)[C@H]1c1cccc(Cl)c1Cl` [5-O-ethyl 3-O-methyl 4-(2,3-dichlorophenyl)-2,6-dimethyl-1,4-dihydropyridine-3,5-dicarboxylate]: the affinity, expressed as Kd, was 1140 nM.
Turning to `Cc1cc(O)cc(O)c1/N=N/c1nccs1` [5-methyl-4-(2-thiazolylazo)resorcinol], the Kd – broadly, the concentration at which binding is half-saturated – was 1750 nM and 500 nM.

Source of the values: BindingDB's records for doi:10.1111/cbdd.12728 (Jawaharlal Nehru Centre For Advanced Scientific Research, 2016).
